Data from patent US20260373119A1, “NOVEL COMPOUND, AND COMPOSITION FOR PREVENTING OR TREATING HER2-POSITIVE CANCER, COMPRISING SAME” (EWHA UNIVERSITY - INDUSTRY COLLABORATION FOUNDATION, priority 2022, published 2026).

Assays:
[1] = system: NCI-N87 (HER2-positive gastric cancer cell line); experiment: antiproliferative effect, NCI-N87; format: cell-based; conditions: Homo sapiens, NCI-N87; 72 hours; HER2-positive
Experimental: (§1) The antiproliferative effects were measured after treating Compounds 1 to 22 for 72 hours on HCT15 (HER2-positive colorectal cancer cell line), NCI-N87 (HER2-positive gastric cancer cell line), T47D (HER2-negative breast cancer cell line), and HeLa (HER2-negative cervical cancer cell line). As a result, strong antiproliferative effects were generally observed in the NCI-N87 cell line (Table 2).
(§2) The antiproliferative effects of the candidate compound, resulting from HER2 inhibition, were evaluated. Specifically, to confirm the anticancer effects of the candidate compound, cancer cells were seeded at a density of 10^4 cells/well in a 96-well cell culture plate for 20 hours. The cells were starved in serum-free media for 4 hours, followed by replacement with media containing the compound at specified concentrations. The cells were then incubated for 72 hours under conditions of 5% CO2 at 37 °C. Cell viability was determined by adding 5 μL of EZ-CytoX to each well and measuring absorbance at 450 nm. The measurements were performed using an ELISA Microplate Reader (VersaMax, Molecular Devices).

[2] = target: T1, ELF3-MED23 protein-protein interaction (Homo sapiens, UniProt Q9ULK4); experiment: SEAP reporter assay, ELF3-MED23 PPI inhibition (293T kidney cells); format: cell-based; conditions: HEK-293T; 10 μM
T1 construct: followed by the addition of either the candidate compound or MED23 protein constructs; endogenous in cells; host or cells: 293T kidney cells (MED23 endogenous; GAL4-ELF3 transfected)
T1 sequence (Q9ULK4 1-1368): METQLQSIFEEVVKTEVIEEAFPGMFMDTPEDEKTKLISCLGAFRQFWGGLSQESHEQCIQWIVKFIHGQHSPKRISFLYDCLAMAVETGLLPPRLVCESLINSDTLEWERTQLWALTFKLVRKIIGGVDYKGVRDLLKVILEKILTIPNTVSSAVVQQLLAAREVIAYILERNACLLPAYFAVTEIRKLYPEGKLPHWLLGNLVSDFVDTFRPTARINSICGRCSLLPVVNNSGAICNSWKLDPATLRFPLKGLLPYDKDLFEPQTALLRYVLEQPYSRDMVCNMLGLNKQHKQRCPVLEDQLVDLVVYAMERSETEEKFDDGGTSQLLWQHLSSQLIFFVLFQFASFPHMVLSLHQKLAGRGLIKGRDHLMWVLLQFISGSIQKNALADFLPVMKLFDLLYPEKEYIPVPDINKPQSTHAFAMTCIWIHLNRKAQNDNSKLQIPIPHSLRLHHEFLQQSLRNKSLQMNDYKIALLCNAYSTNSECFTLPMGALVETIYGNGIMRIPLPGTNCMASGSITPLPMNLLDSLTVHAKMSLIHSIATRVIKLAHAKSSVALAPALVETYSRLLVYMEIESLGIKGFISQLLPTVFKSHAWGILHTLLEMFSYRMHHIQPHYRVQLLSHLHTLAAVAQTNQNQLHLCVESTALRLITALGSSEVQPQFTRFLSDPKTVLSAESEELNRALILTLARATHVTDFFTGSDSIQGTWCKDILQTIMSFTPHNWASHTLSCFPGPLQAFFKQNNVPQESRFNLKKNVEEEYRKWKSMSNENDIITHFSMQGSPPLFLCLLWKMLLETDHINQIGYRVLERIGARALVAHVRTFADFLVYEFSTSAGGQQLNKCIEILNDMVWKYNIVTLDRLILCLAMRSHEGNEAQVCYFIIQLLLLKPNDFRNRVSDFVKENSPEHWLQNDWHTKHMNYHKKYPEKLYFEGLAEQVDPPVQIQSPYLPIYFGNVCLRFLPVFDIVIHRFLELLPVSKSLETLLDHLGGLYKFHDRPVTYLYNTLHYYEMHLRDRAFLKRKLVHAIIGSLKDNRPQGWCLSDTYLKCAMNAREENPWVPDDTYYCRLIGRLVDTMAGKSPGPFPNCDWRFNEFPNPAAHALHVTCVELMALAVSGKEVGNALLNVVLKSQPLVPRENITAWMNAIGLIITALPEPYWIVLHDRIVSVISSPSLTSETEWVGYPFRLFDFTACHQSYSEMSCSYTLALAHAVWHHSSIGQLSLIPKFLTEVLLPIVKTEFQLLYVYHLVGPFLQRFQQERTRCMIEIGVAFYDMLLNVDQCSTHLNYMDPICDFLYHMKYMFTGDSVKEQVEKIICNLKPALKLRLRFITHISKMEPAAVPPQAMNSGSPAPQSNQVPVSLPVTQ
Experimental: To verify whether the D400 and H449 residues play a critical role in the ELF3-MED23 protein-protein interaction, a SEAP assay was performed. Specifically, 293T kidney cells were seeded at a density of 5×10^3 cells/well in a 96-well microplate (SPL, Korea) and cultured overnight. Subsequently, the cells were co-transfected with 100 ng of each plasmid using transfection-optimized medium (Welgene, Korea). The plasmids used included the SEAP reporter gene (pG5IL2SX) and GAL4-ELF3 expression vector (pBJ GAL4-ELF3). For transfection, the cells were incubated with WelFectQ (Welgene, Korea) for 3 hours, followed by the addition of either the candidate compound or MED23 protein constructs (pcDNA MED23^WT, K397A, D400A, H449G, and D400A/H449G). The treated cells were incubated for 12 hours. The candidate compound was added in an incubator at 5% CO2 and 37 °C, and the plate was incubated at 65 °C for 3 hours to inactivate all enzymes except SEAP (Secreted Alkaline Phosphatase). A mixture comprising 100 μL of substrate solution prepared with 1.19 μL of 0.1 M 4-methylumbelliferyl phosphate (Sigma, USA), 25 μL of inactivated medium, and 75 μL of double-distilled water was added, followed by the addition of 98.81 μL of 2 M diethanolamine (pH 10, Sigma, USA). The plate was incubated overnight at 37 °C. Subsequently, the fluorescence intensity was measured using a fluorometer (SPECTRAmax […], Molecular Devices, USA) at an excitation wavelength of 360 nm and an emission wavelength of 440 nm.
To further elaborate on the above findings, small molecule compounds that could affect the ELF3-MED23 PPI were designed and synthesized. Specifically, non-essential side chains were removed from gefitnib, and compounds were designed to include both hydrogen bond donors and acceptors for the D400 and H449 residues of MED23, respectively (FIG. 4A). Specifically, chalcones and pyrazolines were selected as core scaffolds, and 25 compounds (11 chalcones and 14 pyrazoline-based compounds) were prepared. The ELF3-MED23 PPI inhibitory activity of all prepared compounds was measured using a SEAP assay.

[3] = target: MED23 wild-type (FLAG-tagged) (Homo sapiens, UniProt Q9ULK4); experiment: LC-MS/MS protein-small molecule interaction, wild-type MED23; format: binding; conditions: internal standard
Experimental: HEK293 cells were seeded in a […] and incubated until they reached 70-80% confluency. The cells were transfected with p3Xflag-myc-CMV26-MED23^WT and p3Xflag-myc-CMV26-MED23^D400A/H449G plasmids for 24 hours, followed by lysis to obtain protein extracts. To isolate the candidate compound (YK1) bound to MED23, total lysates were incubated with YK1 for 4 hours and subsequently subjected to pulldown using FLAG-agarose beads (Sigma Aldrich, USA). The precipitated beads were washed at least three times to completely remove unbound compounds. To separate the candidate compound from the precipitated MED23, 50 μL of the sample was extracted with 1 mL of acetonitrile and centrifuged at 13,000 rpm at 4 °C for 10 minutes. The supernatant (1,000 μL) from each sample was transferred to a new tube and dried under nitrogen gas at 37 °C. For YK1 analysis, the residue was dissolved in 50 μL of ACN and vortexed for 10 minutes. […] The mixture was then extracted with 450 μL of ACN by ultrasonic treatment and vortex mixing. The candidate compound bound to MED23 was finally analyzed using an Agilent 6460 triple quadrupole mass spectrometer (Agilent Technologies, USA).

[4] = system: HCT15 (HER2-positive colorectal cancer cell line); experiment: antiproliferative effect, HCT15; format: cell-based; conditions: Homo sapiens, HCT-15, 72 hours
Experimental: as §1, §2

[5] = system: T47D (HER2-negative breast cancer cell line); experiment: antiproliferative effect, T47D; format: cell-based; conditions: Homo sapiens, 72 hours
Experimental: as §1, §2

[6] = system: HeLa (HER2-negative cervical cancer cell line); experiment: antiproliferative effect, HeLa; format: cell-based; conditions: Homo sapiens, 72 hours
Experimental: as §1, §2

- IC50 [1]: > 50 µM
- inhibition at 10 µM [2]: 0%
- binding affinity to MED23 relative to candidate compound [3]: lower binding affinity to MED23
- IC50 [4]: 19.7 ± 0.05 µM
- IC50 [5]: 29.28 ± 0.27 µM
- IC50 [6]: 6.69 ± 0.4 µM
Structure (SMILES): COc1ccc(C2CC(c3ccccc3O)=NN2C(C)=O)c2ccccc12 (stereo not drawn) [Compound 18, 1-[3-(2-Hydroxyphenyl)-5-(4-methoxynaphthalen-1-yl)-4,5-dihydropyrazol-1-yl]-ethanone]
